Measured values: PubChem BioAssay (NCI)
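These data come from cells grown in 96-well plates and exposed to compound for 48 hours at five concentrations. TGI denotes the concentration required for complete inhibition of growth.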 Where a SMILES comes first, the peptide text is derived from it. The star is where a group is joined. Cbz = O=C(OCc1ccccc1)*; OBn = c1ccc(CO*)cc1

Legend:
Test in all cases: NCI anticancer screen, dose series, 48 h
[1] = tested on: SK-MEL-28 melanoma
[2] = tested on: EKVX NSCLC
[3] = tested on: NCI-H226 lung
[4] = tested on: BT-549 breast
[5] = tested on: HL-60(TB) leukemia
[6] = tested on: MOLT-4 leukemia
[7] = tested on: HOP-62 NSCLC
[8] = tested on: PC-3 prostate
[9] = tested on: MALME-3M melanoma
[10] = tested on: RPMI-8226 leukemia
[11] = tested on: HOP-92 NSCLC
[12] = tested on: KM12 colon
[13] = tested on: OVCAR-5 ovarian
[14] = tested on: U251 CNS
[15] = tested on: A549 NSCLC
[16] = tested on: SK-MEL-2 melanoma
[17] = tested on: MCF7 breast
[18] = tested on: SK-MEL-5 melanoma
[19] = tested on: SW-620 colon
[20] = tested on: HCC-2998 colon

SMILES	TGI [1] [µM]	TGI [2] [µM]	TGI [3] [µM]	TGI [4] [µM]	TGI [5] [µM]	TGI [6] [µM]	TGI [7] [µM]	TGI [8] [µM]	TGI [9] [µM]	TGI [10] [µM]	TGI [11] [µM]	TGI [12] [µM]	TGI [13] [µM]	TGI [14] [µM]	TGI [15] [µM]	TGI [16] [µM]	TGI [17] [µM]	TGI [18] [µM]	TGI [19] [µM]	TGI [20] [µM]
CCOC(=O)c1cc(Sc2ccc(N)c(C(=O)OCC)c2)ccc1N	> 100	> 100	44.7	> 100	> 100	> 100	65.9	> 100	> 100	> 100	> 100	> 100	> 100	> 100	> 100	> 100	> 100	> 100	> 100	
C[C@H]1[C@H](C)N(Cc2ccccc2)P(=O)(C(O)/C=C/c2ccccc2)N1Cc1ccccc1 (some centres undefined)	> 25	24.9	16.9	> 25		> 25	> 25	13	13.4	15.6	19.7	> 25	18.8	10	> 25	9.66	> 25	8.7	> 25	15.5
O=c1n(/N=C/c2ccccc2)c(=O)n2n1C1C=CC2CC1	> 100	> 100	> 100	> 100	> 100	> 100	> 100	> 100		> 100	> 100	> 100	> 100	> 100	> 100	> 100	> 100	> 100	> 100	
O=C1CC(=O)NC(=NN2C(=O)CSC2c2ccc(Cl)c(Cl)c2)N1 (centres undefined)	> 100		> 100	> 100		54.3	> 100	> 100	> 100	> 100	> 100	> 100	> 100	> 100	> 100	> 100	> 100	> 100	> 100	> 100
CC1=C(C(=O)Nc2cccc3c2C(=O)NC3=O)CC(C(=O)Nc2cccc3c2C(=O)NC3=O)=C(C)N1	> 100	> 100		> 100	> 100	> 100	> 100	> 100	> 100	> 100	> 100	> 100	> 100	> 100	> 100	> 100	> 100	> 100	> 100	> 100
CCOC(=O)/C(N=Nc1ccc(-n2c(C)nc3ccccc3c2=O)cc1)=C(/C)O	71.6	> 100	80.1	> 100	41.2	64.1	> 100	> 100		> 100	> 100	37.4	> 100	> 100	> 100	> 100	> 100	16	> 100	
COc1ccc(OC)c2sc(N3C(=O)/C(=C/Cc4ccco4)N=C3c3ccccc3)nc12	> 100	> 100		> 100	37.9	70.9	> 100	71.5		> 100	> 100	> 100	> 100	54.1	> 100	67.3	35.7	80.5	> 100	> 100
CCOC(=O)NC(C(F)(F)F)(C(F)(F)F)P(=O)(OC(C)C)OC(C)C	> 100	> 100	> 100	> 100	> 100	> 100	> 100	> 100	> 100	> 100		> 100	> 100	> 100	> 100	> 100	> 100	> 100	> 100	> 100
Cc1c2cnccc2c(C)c2c1[nH]c1ccc(O)cc12	9.94	> 10	> 10	> 10	2.98	> 10	2.75	> 10	8.28	> 10		2.34	> 10	> 10	> 10	> 10	5.34	> 10	7.03	> 10
NCCCNCCCNCCCN	> 100	> 100	> 100	> 100	> 100	42.4	> 100	> 100	> 100	41.1		> 100	> 100	> 100	> 100	> 100	> 100	> 100	> 100	> 100
CCOC(=O)c1nc2ccc(C(F)(F)F)cc2nc1NCc1ccc(Cl)c(Cl)c1		> 100	> 100	> 100	> 100	> 100	52.1	75.9	99.1	> 100	40.4	> 100	> 100	> 100	> 100	> 100	> 100	> 100	> 100	
N#CC1(C#N)C2CCCCC23OC(=N)C1(C#N)C(c1ccco1)O3 (centres undefined)	45.6	79.3	> 100	30.3		> 100		64.6	48.3		29.2	> 100	61.8		> 100	45.3	54	31.3	52.3	31
CCc1nnc(CC)n1NCCCC(=O)O	> 100	> 100		> 100		> 100	> 100	> 100		> 100	> 100	> 100	> 100	> 100	> 100	> 100	> 100	> 100	> 100	> 100
COC(=O)CNC(=O)C(C)NC(=O)C(CC(=O)OCc1ccccc1)NC(=O)OCc1ccccc1 (stereo not drawn) (Cbz-Asp(OBn)-Ala-Gly-OMe; configuration not given here)	> 100		> 100	> 100		> 100	> 100	> 100	> 100	> 100	> 100	> 100	> 100	> 100	> 100	> 100	> 100	71.8	> 100	> 100
Oc1ccccc1/C=N/Nc1nnc2c3ccccc3c3ccccc3c2n1	> 100	> 100	> 100	> 100	> 100	> 100	> 100	> 100	> 100	> 100	> 100	> 100	> 100	> 100	> 100	> 100	> 100	> 100	> 100	
CSc1nc2ccccc2c(=O)n1/N=C1\C(=O)N(CN2CCCCC2)c2ccc(Cl)cc21	> 100	> 100	> 100	80.7	50.1	39.9	> 100	> 100	> 100		> 100	> 100	> 100	> 100	> 100	54.6	> 100	> 100	52.1	
CC(C)OP(=O)(OC(C)C)C(C(C)C)N(C)/C(N)=N\C1=NC(C(F)(F)F)(C(F)(F)F)N=C(C(C(F)(F)F)C(F)(F)F)O1 (centres undefined)	12.4	16.1	5.05	8.2	4.16	4.78	18	8.42	22.7	7.45		14	11.4	11.2	14.6	> 100	32		5.48	19.5
COC(=O)[C@H](Cc1ccccc1)NC(=O)NCCN(CCNC(=O)N[C@@H](Cc1ccccc1)C(=O)OC)C(=O)N[C@@H](Cc1ccccc1)C(=O)OC	35.4	> 61.7	34.6	39.2		45	39.8	40.6	37.8	46.3	70	39.5	35.2	41.2	54.3	42.5	61.8	37.4	43.8	34.8
O=C(O)c1c[nH]c2c(Sc3ccccc3)nccc2c1=O	> 100	> 100	> 100	> 100	> 100	> 100	> 100	> 100			> 100	> 100	> 100	> 100	> 100	> 100	> 100	> 100	> 100	
CC(C)=CCOc1cc(NC(=S)c2ccoc2C)ccc1Cl	> 100	> 100	> 100	> 100		> 100	> 100	> 100	> 100	> 100	> 100	> 100	> 100	> 100	> 100	> 100	> 100	> 100	> 100	> 100
CC1C2CC(CC(=O)N2)C1(C)C (centres undefined)	> 100	> 100	> 100	> 100	> 100		> 100	> 100	> 100		> 100	> 100	> 100	> 100	> 100		> 100	> 100	> 100	> 100
CC(C)c1ccccc1SC1CC(=O)CC(Sc2ccccc2C(C)C)C12O[C@H](c1ccccc1)[C@@H](c1ccccc1)O2 (some centres undefined)	> 100	> 100		> 100	34.8	> 100	> 100	> 100		61.3	> 100	> 100	> 100	40.1	> 100	> 100	> 100	> 100	> 100	> 100
CCOC(=O)C(c1c[nH]c2ccccc12)(c1c[nH]c2ccccc12)c1c[nH]c2ccccc12	> 100	> 100		> 100	43.9	40.8	> 100	71.2	78.1	45.7	> 100	98.7	> 100	> 100	> 100	59.7	90.2	> 100	75.9	45.3
Nc1ccn(C2CC(O)C(COP(O)(=S)OC3CC(n4ccc(N)nc4=O)OC3CO)O2)c(=O)n1 (centres undefined)	> 100	> 100		> 100	> 100	> 100	> 100	> 100		> 100	> 100	> 100	> 100	> 100	> 100	> 100	> 100	> 100	> 100	> 100
COc1cc2c(cc1OC)-c1[nH]c3ccc(C#N)cc3c1CC(=O)N2	> 100	> 100	> 100	> 100	7.45	> 100	> 100	> 100	> 100		> 100	> 100	> 24.7	> 100	> 100		> 100	28	> 100	
